Key:
Assay type in all cases: in vivo
spring wheat [1] = assay: Field trial: grain yield of spring wheat, postemergence treatment with MPR + epoxiconazole; settings: EPC 125, MPR + EPC 100 + 125 g ai/ha
Source text: (§1) The applications have been done with seed treatment, pre- or post-emergence treatments straight (alone, 1 application) or sequential treatments e.g. seed treatment followed by pre-emergence and/or post-emergence spray applications. The pre- or post-emergence applications were made with spray applications using 100-300 l/water per hectare. The growth stage of the crops species at the time of application are reported in the result tables. The dose rates of the herbicidal active ingredients applied alone respective in sequential application are also described in the result tables. The assessments have been done via visual ratings (0-100% scale) or counting. The trials have been harvested after crops reached the full maturity. After the harvest the total weight of kernels/seeds/beets per plot was measured. The results are reported as means over 2-4 replications. The time between applications and assessments or countings/harvest are described in the result tables as well.

winter wheat [2] = assay: Field trial: grain yield of winter wheat, postemergence treatment with mefenpyr-diethyl
Source text: (§2) The trials have been carried out under natural field conditions (plot trials, 10 square meter plots, 2-4 replications).
(§3) The applications have been done with seed treatment, pre- or post-emergence treatments straight (alone, 1 application) or sequential treatments e.g. seed treatment followed by pre-emergence and/or post-emergence spray applications. The pre- or post-emergence applications were made with spray applications using 100-300 l/water per hectare. The growth stage of the crops species at the time of application are reported in the result tables. The dose rates of the herbicidal active ingredients applied alone respective in sequential application are also described in the result tables.
(§4) The assessments have been done via visual ratings (0-100% scale) or counting. The trials have been harvested after crops reached the full maturity. After the harvest the total weight of kernels/seeds/beets per plot was measured. The results are reported as means over 2-4 replications. The time between applications and assessments or countings/harvest are described in the result tables as well.

spring wheat [3] = assay: Field trial: grain yield of spring wheat, postemergence treatment with mefenpyr-diethyl
Source text: as §2, §3, §4

durum wheat = assay: Field trial: grain yield of durum wheat, seed treatment with mefenpyr-diethyl
Source text: as §2, §3, §4
(§5) The active ingredients have been applied to the untreated, dry seeds together with a carrier. After a short period of time to let the seeds dry, they were ready to be sown in the pot or field using standard equipments.

winter wheat [4] = assay: Field trial: emergence (number of plants) of winter wheat, pre-emergence application of mefenpyr-diethyl; settings: 11 days after application
Source text: as §2, §3, §4

winter barley = assay: Field trial: grain yield of winter barley, sequential application of MPR; settings: 0.5 g ai/kg seed fb 4 × 50 g ai/ha post
Source text: as §2, §3, §4, §5

[5] = tested on: winter oilseed rape (canola); assay: Field trial: grain yield of winter oilseed rape (canola), sequential application of mefenpyr-diethyl; settings: 3 g ai/kg seed fb 3 × 50 g ai/ha post
Source text: as §2, §3, §4, §5

sugarbeet = assay: Field trial: beet yield of sugarbeet, sequential application of mefenpyr-diethyl; settings: 0.015 mg ai/seed fb 3 × 50 g ai/ha post
Source text: as §2, §3, §4, §5

sugarbeets [6] = assay: Field trial: emergence of sugarbeets, seed treatment with MPR; settings: seed treatment 0.015 mg ai/seed, 28 days after planting
Source text: as §2, §3, §4, §5

sugarbeets [7] = assay: Field trial: sugar yield of sugarbeets, sequential application of mefenpyr-diethyl; settings: 0.015 mg ai/seed fb 3 × 50 g ai/ha post
Source text: as §2, §3, §4, §5

[8] = tested on: spring oilseed rape (canola); assay: Field trial: grain yield of spring oilseed rape (canola), postemergence treatment with MPR + tebuconazole; settings: TBC 150, MPR + TBC 100 + 150 g ai/ha
Source text: as §1

[9] = grain yield relative to UTC = 100%

In the case of `Fc1ccc([C@]2(Cn3cncn3)O[C@H]2c2ccccc2Cl)cc1` (racemic) [EPC, epoxiconazole], the Relative % (spring wheat [1]; [9]) is reported as 109.7%, the “Difference (%) vs. UTC” value (spring wheat [1]; grain yield) is reported as “+9.7%” and the “Yield (grain yield at harvest)” value (spring wheat [1]; spring wheat, post-emergence spring, flag leaf sheath opening, harvest 55 days after application, UTC 1.84) is reported as 2.02 t/ha.
In the case of `CCOC(=O)C1=NN(c2ccc(Cl)cc2Cl)C(C)(C(=O)OCC)C1` (stereo not drawn) [MPR, ethyl 1-(2,4-dichlorophenyl)-5-(ethoxycarbonyl)-5-methyl-2-pyrazoline-3-carboxylate], the Relative % (winter wheat [2]; grain yield relative to UTC = 100%, 100 g ai/ha post-emergence, 84 days after application) is reported as 106.3%, the “Difference (%) vs. UTC” value (winter wheat [2]; grain yield, 100 g ai/ha post-emergence, 84 days after application) is reported as “+6.3%” and the “Yield (grain yield at harvest)” value (winter wheat [2]; winter wheat, 100 g ai/ha post-emergence spring, beginning of stem elongation, harvest 84 days after application, UTC 9.52) is reported as 10.12 t/ha. The Relative % (spring wheat [3]; grain yield relative to UTC = 100%, 100 g ai/ha post-emergence, 72 days after application) was 119.2%, the “Difference (%) vs. UTC” value (spring wheat [3]; grain yield, 100 g ai/ha post-emergence, 72 days after application) was “+19.2%” and the “Yield (grain yield at harvest)” value (spring wheat [3]; spring wheat, 100 g ai/ha post-emergence spring, flag leaf/beginning of ear heading, harvest 72 days after application, UTC 6.06) was 7.16 t/ha. The “Yield (grain yield at harvest)” value (durum wheat; durum wheat, seed treatment 0.5 g ai/kg seed prior planting, harvest 158 days after application, UTC 4.45) was 4.97 t/ha, the Relative % (durum wheat; grain yield relative to UTC = 100%, seed treatment 0.5 g ai/kg seed) was 111.7% and the “Difference (%) vs. UTC” value (durum wheat; grain yield, seed treatment 0.5 g ai/kg seed) was “+11.7%”. The Relative % (winter wheat [4]; number of plants relative to UTC = 100%, pre-emergence, dose 100) was 107.4%, the “Difference (%) vs. UTC” value (winter wheat [4]; number of plants, pre-emergence, dose 100) was “+7.4%” and the “Yield [plants/row meter] (number of plants, increased emergence)” value (winter wheat [4]; winter wheat, pre-emergence treatment, dose 100 g ai/ha, UTC 34.2) was 36.8 plants/row meter. For the same compound, the Relative (winter barley; [9]) was 104%, the “Difference (%) vs. UTC” value (winter barley; grain yield) was “+4%” and the “Yield (grain yield at harvest)” value (winter barley; winter barley, harvest 74 days after the last application, UTC 10.01) was 10.45 t/ha. For the same compound, the Relative [5, 9] was 107%, the “Difference (%) vs. UTC” value ([5]; grain yield) was “+7%” and the “Yield (grain yield at harvest)” value ([5]; winter oilseed rape, harvest 102 days after the last application, UTC 3.60) was 3.85 t/ha. The Relative (sugarbeet; beet yield relative to UTC = 100%) was 108.1%, the “Difference (%) vs. UTC” value (sugarbeet; beet yield) was “+8.1%” and the “Yield (yield of beets by weight at harvest)” value (sugarbeet; sugarbeet, harvest 162 days after last application, UTC 58.7) was 63.5 t/ha. The Relative (sugarbeets [6]; emerged plants relative to UTC = 100%) was 109.2%, the “Difference (%) vs. UTC” value (sugarbeets [6]; emerged plants) was “+9.2%” and the “plants/18 row meters (emergence, counting)” value (sugarbeets [6]; sugarbeets, UTC 65) was 71 plants/18 row meters. The Relative (sugarbeets [7]; sugar yield relative to UTC = 100%) was 106.1%, the “Difference (%) vs. UTC” value (sugarbeets [7]; sugar yield) was “+6.1%” and the “Sugar Yield (by weight at harvest)” value (sugarbeets [7]; sugarbeets, harvest 162 days after the last application, UTC 5.70) was 6.05 t/ha.
In the case of `CC(C)(C)C(O)(CCc1ccc(Cl)cc1)Cn1cncn1` (stereo not drawn) [TBC, tebuconazole], the Relative % [8, 9] is reported as 102%, the “Difference (%) vs. UTC” value ([8]; grain yield) is reported as “+2%” and the “Yield (grain yield at harvest)” value ([8]; spring oilseed rape, post-emergence spring, beginning of flowering, harvest 92 days after application, UTC 3.91) is reported as 3.98 t/ha.
